These results are taken from ChEMBL document CHEMBL1201862, “PubChem BioAssay data set” (2004).

The structures appear in SMILES notation.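 Dose response: 5 concentrations. Exposure: 48 h. Format: 96-well plates. Endpoint: linear interpolation; highest concentration if not reached. The concentration for 50% growth inhibition is given as GI50.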 The source made the active and inactive calls. Cut-off read from the data, not from the text of the source: active = GI50 up to about 1.1 µM and inactive = higher. Some results are limits rather than exact numbers.

Holding throughout (assay): DTP human tumour cell line panel, 48 h
Test [1] relates to Malme-3M.
The subject of test [2] is SNB-19.
In test [3] the test system is ACHN.
Test [4] relates to RXF 393.
The subject of test [5] is HOP-92.
The test system of test [6] is NCI/ADR-RES.
Test [7] relates to SK-OV-3.
In test [8] the test system is RPMI-8226.
For test [9], the system named is M14.
The test system of test [10] is HCT-116.
In test [11] the test system is K562.
In test [12] the test system is CCRF-CEM.
Test [13] deals with HT-29.
For test [14], the system named is UACC-257.
Test [15] concerns SK-MEL-28.
The test system of test [16] is MDA-MB-231.
The subject of test [17] is NCI-H23.
For test [18], the system named is OVCAR-8.
Test [19] has as its system A498.
Test [20] has as its system HL-60.

For orientation: GI50 means the concentration at which growth is held to half of that of the control. `CC(C)NC(=O)OCc1c(COC(=O)NC(C)C)c(-c2ccc[n+](COC(=O)Cc3ccccc3)c2)n2c1CCC2`: the GI50 in test [1] is 49 µM (inactive); in test [2] it was 94.8 µM (inactive); in [3], 13.2 µM (inactive); in test [4], 23 µM (inactive); in test [5], 16.4 µM (inactive); in test [6] it was 36.6 µM (inactive). Also, the GI50 in [7] is 29.2 µM (inactive); in [8], 23.6 µM (inactive); in test [9], 40.2 µM (inactive); in [10], 30.4 µM (inactive); in [11], 71 µM (inactive); in [12], 54.7 µM (inactive). For the same molecule, the GI50 in test [13] is 26.1 µM (inactive); in test [14] it was 58.9 µM (inactive); in [15], > 100 µM (inactive); in test [16], 26.2 µM (inactive); in [17], 21.3 µM (inactive); in test [18], 37.8 µM (inactive). Further, the GI50 in test [19] was 22.5 µM (inactive); in test [20], > 100 µM (inactive).

For the molecule `COc1ccc(N2C(=O)C3c4[nH]c5ccc(OCc6ccccc6)cc5c4C4CCC(c5ccccc5)CC4C3C2=O)cc1` (stereo not given), the GI50 is 2.35 µM (inactive) in test [1]; 11 µM (inactive) in test [2]; 7.21 µM (inactive) in test [3]; 6.49 µM (inactive) in [4]; 3.08 µM (inactive) in test [5]; 18.8 µM (inactive) in test [6]. In addition, the GI50 in test [7] was 4.98 µM (inactive); in test [8], 6.61 µM (inactive); in test [9] it was 6.78 µM (inactive); in test [10], 11.1 µM (inactive); in [11], 4.37 µM (inactive); in [12] it was 4.2 µM (inactive). The GI50 in [13] is 11 µM (inactive); in [14], 42.9 µM (inactive); in test [15] it was 1.94 µM (inactive); in [16], 6.35 µM (inactive); in [17], 9.62 µM (inactive); in test [18], 8.91 µM (inactive). The GI50 in test [19] is 23.9 µM (inactive); in test [20], 0.34 µM (active).

As to `C[N+]1(C)CCOC(O)(c2ccccc2)C1` (stereo not given), the GI50 in test [1], in test [2], in test [3], in [4], in test [5] and in test [6] was > 100 µM (inactive) each time. The GI50 in test [7], in test [8], in [9], in test [10], in test [11] and in [12] was > 100 µM (inactive) each time. For the same molecule, the GI50 in test [13], in [14], in test [15], in test [16], in test [17] and in [18] was > 100 µM (inactive) each time. The GI50 in test [19] and in test [20] was > 100 µM (inactive) in each case.

For the molecule `NC1CCCCC1NCCNC1CCCCC1N` (stereo not given), the GI50 in test [1] was > 100 µM (inactive); in test [2] it was > 100 µM (inactive); in [3], > 100 µM (inactive); in test [4], > 100 µM (inactive); in test [5], 41.5 µM (inactive); in [6] it was > 100 µM (inactive). The GI50 is > 100 µM (inactive) in test [7]; > 100 µM (inactive) in test [8]; > 100 µM (inactive) in test [9]; 47.5 µM (inactive) in test [10]; 49.2 µM (inactive) in test [11]; 36.4 µM (inactive) in test [12]. In addition, the GI50 is 17.7 µM (inactive) in test [13]; > 100 µM (inactive) in [14]; > 100 µM (inactive) in test [15]; > 100 µM (inactive) in test [16]; 29.9 µM (inactive) in test [17]; > 100 µM (inactive) in test [18]. The GI50 in [19] and in test [20] was > 100 µM (inactive) in each case.

As for `NC1(C(=O)O)CCCC1C(=O)O` (stereo not given), the GI50 in [1], in test [2], in test [3], in test [4], in test [5] and in test [6] was > 100 µM (inactive) throughout. In addition, the GI50 in test [7], in [8], in test [9], in [10], in [11] and in [12] was > 100 µM (inactive) in each case. In addition, the GI50 in [13], in [14], in [15], in test [16], in test [17] and in test [18] was > 100 µM (inactive) throughout. In addition, the GI50 in test [19] and in test [20] was > 100 µM (inactive) throughout.

With `CC(C)(C)c1cc(OCc2nn3c(Cc4ccccc4)nnc3s2)c(Cl)cc1OCc1nn2c(Cc3ccccc3)nnc2s1`, the GI50 in [1] was 12 µM (inactive); in test [2], 80.9 µM (inactive); in test [3], 14.4 µM (inactive); in [4], 17.1 µM (inactive); in [5], 16.2 µM (inactive); in [6], 39.3 µM (inactive). Further, the GI50 in [7] is > 100 µM (inactive); in test [8] it was 10.6 µM (inactive); in test [9], 29.7 µM (inactive); in test [10], 16.6 µM (inactive); in [11], 17.3 µM (inactive); in [12] it was 6.67 µM (inactive). The GI50 in [13] was 23.3 µM (inactive); in test [14], 23.6 µM (inactive); in [15], 36.2 µM (inactive); in test [16], 33.3 µM (inactive); in [17], 39.1 µM (inactive); in test [18], 25.3 µM (inactive). In addition, the GI50 in [19] was 15 µM (inactive); in [20], 23.9 µM (inactive).
